Experiments:
Assay type in all cases: in vivo
rice (Oryza sativa) = test: Test B flooded paddy test, rice; conditions: Flood, 250 g ai/ha, applied to paddy water, 2-leaf stage, visual evaluation after 13 to 15 d
Summary of the method: (§1)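 Growth to two leaves preceded treatment. Flooding to 3 cm above soil surface, then water-applied compound; depth kept constant. Scored visually relative to controls after 13–15 d greenhouse; 100 means full control.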

[1] = tested on: sedge, umbrella (small-flower umbrella sedge, Cyperus difformis); test: Test B flooded paddy test, umbrella sedge; conditions: Flood, 250 g ai/ha, applied to paddy water, 2-leaf stage, visual evaluation after 13 to 15 d
Summary of the method: as §1

[2] = tested on: ducksalad (Heteranthera limosa); test: Test B flooded paddy test, ducksalad; conditions: Flood, 250 g ai/ha, applied to paddy water, 2-leaf stage, visual evaluation after 13 to 15 d
Summary of the method: as §1

[3] = tested on: ryegrass, Italian (Lolium multiflorum); test: Test A postemergence, Italian ryegrass; conditions: 0 to 100 scale, 0 no effect, 100 complete control
Summary of the method: (§2)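 Using a solvent/surfactant formulation, test chemicals were sprayed onto freshly seeded soil or onto 2–10 cm seedlings at the one- to two-leaf stage. Visual injury ratings on a 0–100 scale were made about 10 d later in the greenhouse.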

[4] = tested on: wheat (Triticum aestivum); test: Test A postemergence, wheat; conditions: 0 to 100 scale, 0 no effect, 100 complete control
Summary of the method: as §2

[5] = tested on: barnyardgrass (Echinochloa crus-galli); test: Test A postemergence, barnyardgrass; conditions: 0 to 100 scale, 0 no effect, 100 complete control
Summary of the method: as §2

[6] = tested on: galium (catchweed bedstraw, Galium aparine); test: Test A postemergence, galium; conditions: 0 to 100 scale, 0 no effect, 100 complete control
Summary of the method: as §2

[7] = tested on: foxtail, giant (Setaria faberii); test: Test A postemergence, giant foxtail; conditions: 0 to 100 scale, 0 no effect, 100 complete control
Summary of the method: as §2

[8] = tested on: ryegrass, Italian (Lolium multiflorum); test: Test A preemergence, Italian ryegrass; conditions: 0 to 100 scale, 0 is no effect, 100 is complete control
Summary of the method: as §2

[9] = tested on: pigweed (Amaranthus retroflexus); test: Test A preemergence, pigweed; conditions: 0 to 100 scale, 0 is no effect, 100 is complete control
Summary of the method: as §2

[10] = tested on: ragweed (common ragweed, Ambrosia elatior); test: Test A postemergence, ragweed; conditions: 0 to 100 scale, 0 no effect, 100 complete control
Summary of the method: as §2

kochia (Kochia scoparia) [11] = test: Test A preemergence, kochia; conditions: 0 to 100 scale, 0 is no effect, 100 is complete control
Summary of the method: as §2

[12] = tested on: barnyardgrass (Echinochloa crus-galli); test: Test A preemergence, barnyardgrass; conditions: 0 to 100 scale, 0 is no effect, 100 is complete control
Summary of the method: as §2

[13] = tested on: barnyardgrass (Echinochloa crus-galli); test: Test B flooded paddy test, barnyardgrass; conditions: Flood, 250 g ai/ha, applied to paddy water, 2-leaf stage, visual evaluation after 13 to 15 d
Summary of the method: as §1

[14] = tested on: pigweed (Amaranthus retroflexus); test: Test A postemergence, pigweed; conditions: 0 to 100 scale, 0 no effect, 100 complete control
Summary of the method: as §2

[15] = tested on: ragweed (common ragweed, Ambrosia elatior); test: Test A preemergence, ragweed; conditions: 0 to 100 scale, 0 is no effect, 100 is complete control
Summary of the method: as §2

corn (Zea mays) = test: Test A postemergence, corn; conditions: 0 to 100 scale, 0 no effect, 100 complete control
Summary of the method: as §2

[16] = tested on: blackgrass (Alopecurus myosuroides); test: Test A postemergence, blackgrass; conditions: 0 to 100 scale, 0 no effect, 100 complete control
Summary of the method: as §2

kochia (Kochia scoparia) [17] = test: Test A postemergence, kochia; conditions: 0 to 100 scale, 0 no effect, 100 complete control
Summary of the method: as §2

[18] = tested on: foxtail, giant (Setaria faberii); test: Test A preemergence, giant foxtail; conditions: 0 to 100 scale, 0 is no effect, 100 is complete control
Summary of the method: as §2

Structure (SMILES) | Plant response rating, Rice (0 to 100 scale, 0 is no effect, 100 is complete control) (rice (Oryza sativa)) | Plant response rating, Sedge, Umbrella (0 to 100 scale, 0 is no effect, 100 is complete control) [1] | Plant response rating, Ducksalad (0 to 100 scale, 0 is no effect, 100 is complete control) [2] | Plant response rating, Ryegrass, Italian ([3]; 31 g ai/ha) | Plant response rating, Ryegrass, Italian ([3]; 125 g ai/ha) | Plant response rating, Wheat ([4]; 31 g ai/ha) | Plant response rating, Wheat ([4]; 125 g ai/ha) | Plant response rating, Barnyardgrass ([5]; 31 g ai/ha) | Plant response rating, Barnyardgrass ([5]; 125 g ai/ha) | Plant response rating, Galium ([6]; 31 g ai/ha) | Plant response rating, Galium ([6]; 125 g ai/ha) | Plant response rating, Foxtail, Giant ([7]; 31 g ai/ha) | Plant response rating, Foxtail, Giant ([7]; 125 g ai/ha) | Ryegrass, Italian plant response rating ([8]; 31 g ai/ha) | Ryegrass, Italian plant response rating ([8]; 125 g ai/ha) | Pigweed plant response rating ([9]; 31 g ai/ha) | Pigweed plant response rating ([9]; 125 g ai/ha) | Plant response rating, Ragweed ([10]; 31 g ai/ha) | Plant response rating, Ragweed ([10]; 125 g ai/ha) | Kochia plant response rating (kochia (Kochia scoparia) [11]; 31 g ai/ha) | also measured
CC(F)c1nc(N[C@H](C)c2cc3ccccc3s2)nc(N)c1C(F)(F)F (stereo partly drawn) [Compound 108] | 0 | 75 | 30 | 0 | 50 | 0 | 0 | 20 | 0 | 50 | 70 | 0 | 20 | 0 | 30 | 70 | 90 | 30 | 50 | 90 | Kochia plant response rating (kochia (Kochia scoparia) [11]; 125 g ai/ha): 90; Barnyardgrass plant response rating ([12]; 31 g ai/ha): 40; Barnyardgrass plant response rating ([12]; 125 g ai/ha): 30; Plant response rating, Barnyardgrass (0 to 100 scale, 0 is no effect, 100 is complete control) [13]: 35; Plant response rating, Pigweed ([14]; 31 g ai/ha): 70; Plant response rating, Pigweed ([14]; 125 g ai/ha): 90; Ragweed plant response rating ([15]; 31 g ai/ha): 50; Ragweed plant response rating ([15]; 125 g ai/ha): 70; Plant response rating, Corn (corn (Zea mays); 31 g ai/ha): 0; Plant response rating, Corn (corn (Zea mays); 125 g ai/ha): 10; Plant response rating, Blackgrass ([16]; 31 g ai/ha): 0; Plant response rating, Blackgrass ([16]; 125 g ai/ha): 0; Plant response rating, Kochia (kochia (Kochia scoparia) [17]; 31 g ai/ha): 40; Plant response rating, Kochia (kochia (Kochia scoparia) [17]; 125 g ai/ha): 70; Foxtail, Giant plant response rating ([18]; 31 g ai/ha): 30; Foxtail, Giant plant response rating ([18]; 125 g ai/ha): 30
C[C@@H](Nc1nc(N)c(C(F)(F)F)c(C(F)F)n1)c1cc2ccccc2s1 [Compound 109] | 20 | 75 | 65 | 0 | 0 | 0 | 0 | 0 | 0 | 40 | 70 | 0 | 20 | 20 | 40 | 70 | 90 | 50 | 60 | 80 | Kochia plant response rating (kochia (Kochia scoparia) [11]; 125 g ai/ha): 90; Barnyardgrass plant response rating ([12]; 31 g ai/ha): 0; Barnyardgrass plant response rating ([12]; 125 g ai/ha): 0; Plant response rating, Barnyardgrass (0 to 100 scale, 0 is no effect, 100 is complete control) [13]: 35; Plant response rating, Pigweed ([14]; 31 g ai/ha): 80; Plant response rating, Pigweed ([14]; 125 g ai/ha): 90; Ragweed plant response rating ([15]; 31 g ai/ha): 30; Ragweed plant response rating ([15]; 125 g ai/ha): 90; Plant response rating, Corn (corn (Zea mays); 31 g ai/ha): 0; Plant response rating, Corn (corn (Zea mays); 125 g ai/ha): 0; Plant response rating, Blackgrass ([16]; 31 g ai/ha): 10; Plant response rating, Blackgrass ([16]; 125 g ai/ha): 10; Plant response rating, Kochia (kochia (Kochia scoparia) [17]; 31 g ai/ha): 50; Plant response rating, Kochia (kochia (Kochia scoparia) [17]; 125 g ai/ha): 70; Foxtail, Giant plant response rating ([18]; 31 g ai/ha): 0; Foxtail, Giant plant response rating ([18]; 125 g ai/ha): 30
C[C@@H](Nc1ncc([S+](C)[O-])c(N)n1)c1cc2ccccc2s1 (stereo partly drawn) [Compound 110] | 15 | 90 | 60 | 0 | 0 | 0 | 0 | 0 | 10 | 30 | 70 | 0 | 0 | 0 | 0 | 0 | 30 | 0 | 30 | 0 | Kochia plant response rating (kochia (Kochia scoparia) [11]; 125 g ai/ha): 0; Barnyardgrass plant response rating ([12]; 31 g ai/ha): 0; Barnyardgrass plant response rating ([12]; 125 g ai/ha): 0; Plant response rating, Barnyardgrass (0 to 100 scale, 0 is no effect, 100 is complete control) [13]: 20; Plant response rating, Pigweed ([14]; 31 g ai/ha): 60; Plant response rating, Pigweed ([14]; 125 g ai/ha): 80; Ragweed plant response rating ([15]; 31 g ai/ha): 40; Ragweed plant response rating ([15]; 125 g ai/ha): 80; Plant response rating, Corn (corn (Zea mays); 31 g ai/ha): 0; Plant response rating, Corn (corn (Zea mays); 125 g ai/ha): 10; Plant response rating, Blackgrass ([16]; 31 g ai/ha): 0; Plant response rating, Blackgrass ([16]; 125 g ai/ha): 0; Plant response rating, Kochia (kochia (Kochia scoparia) [17]; 31 g ai/ha): 0; Plant response rating, Kochia (kochia (Kochia scoparia) [17]; 125 g ai/ha): 10; Foxtail, Giant plant response rating ([18]; 31 g ai/ha): 0; Foxtail, Giant plant response rating ([18]; 125 g ai/ha): 0
C[C@@H](Nc1nc(N)c(C(F)(F)F)c(C(F)F)n1)c1cc2ccccc2o1 [Compound 111] | 0 | 0 | 0 | 0 | 0 | 0 | 0 | 10 | 0 | 20 | 50 | 0 | 0 | 0 | 0 | 10 | 70 | 40 | 50 | 40 | Kochia plant response rating (kochia (Kochia scoparia) [11]; 125 g ai/ha): 70; Barnyardgrass plant response rating ([12]; 31 g ai/ha): 0; Barnyardgrass plant response rating ([12]; 125 g ai/ha): 0; Plant response rating, Barnyardgrass (0 to 100 scale, 0 is no effect, 100 is complete control) [13]: 0; Plant response rating, Pigweed ([14]; 31 g ai/ha): 50; Plant response rating, Pigweed ([14]; 125 g ai/ha): 80; Ragweed plant response rating ([15]; 31 g ai/ha): 30; Ragweed plant response rating ([15]; 125 g ai/ha): 90; Plant response rating, Corn (corn (Zea mays); 31 g ai/ha): 0; Plant response rating, Corn (corn (Zea mays); 125 g ai/ha): 20; Plant response rating, Blackgrass ([16]; 31 g ai/ha): 0; Plant response rating, Blackgrass ([16]; 125 g ai/ha): 0; Plant response rating, Kochia (kochia (Kochia scoparia) [17]; 31 g ai/ha): 0; Plant response rating, Kochia (kochia (Kochia scoparia) [17]; 125 g ai/ha): 60; Foxtail, Giant plant response rating ([18]; 31 g ai/ha): 0; Foxtail, Giant plant response rating ([18]; 125 g ai/ha): 10
CC(F)c1nc(N[C@H](C)c2cc3ccccc3o2)nc(N)c1C(F)(F)F (stereo partly drawn) [Compound 112] | 0 | 0 | 0 | 0 | 0 | 0 | 0 | 0 | 0 | 20 | 60 | 0 | 0 | 0 | 0 | 0 | 80 | 0 | 0 | 0 | Kochia plant response rating (kochia (Kochia scoparia) [11]; 125 g ai/ha): 70; Barnyardgrass plant response rating ([12]; 31 g ai/ha): 0; Barnyardgrass plant response rating ([12]; 125 g ai/ha): 0; Plant response rating, Barnyardgrass (0 to 100 scale, 0 is no effect, 100 is complete control) [13]: 0; Plant response rating, Pigweed ([14]; 31 g ai/ha): 30; Plant response rating, Pigweed ([14]; 125 g ai/ha): 60; Ragweed plant response rating ([15]; 31 g ai/ha): 0; Ragweed plant response rating ([15]; 125 g ai/ha): 30; Plant response rating, Corn (corn (Zea mays); 31 g ai/ha): 30; Plant response rating, Corn (corn (Zea mays); 125 g ai/ha): 0; Plant response rating, Blackgrass ([16]; 31 g ai/ha): 0; Plant response rating, Blackgrass ([16]; 125 g ai/ha): 0; Plant response rating, Kochia (kochia (Kochia scoparia) [17]; 31 g ai/ha): 10; Plant response rating, Kochia (kochia (Kochia scoparia) [17]; 125 g ai/ha): 60; Foxtail, Giant plant response rating ([18]; 31 g ai/ha): 0; Foxtail, Giant plant response rating ([18]; 125 g ai/ha): 0
